From patent US8232263B2, “17,20(Z)-dehydro vitamin D analogs and their uses” (Wisconsin Alumni Research Foundation, priority 2004, dated 2012) come the findings set out here.

A word on the EC50: it is the concentration at which the effect is half-maximal. For orientation: Ki means a dissociation constant, usually derived from enzyme kinetics or from competition with a known ligand.

Structures are written as SMILES. Entries after “also recorded” stand apart in the source; their conditions may differ.

Assay [1] is described as follows: Bone calcium mobilization (serum calcium) in vitamin D-deficient rats. In kind it is in vivo, Sprague-Dawley rats. The method, then:
(§1) Male, weanling Sprague-Dawley rats were placed on Diet 11 (Suda et al, J. Nutr. 100:1049, 1970) (0.47% Ca)+vitamins AEK for one week followed by Diet 11 (0.02% Ca)+vitamins AEK for 3 weeks. The rats were then switched to the same diet containing 0.47% Ca for one week followed by two weeks on the same diet containing 0.02% Ca. Dose administration began during the last week on 0.02% calcium diet. Four consecutive ip doses were given approximately 24 hours apart. Twenty-four hours after the last dose, blood was collected from the severed neck and the concentration of serum calcium determined by atomic absorption spectrometry as a measure of bone calcium mobilization. The first 10 cm of the intestine was also collected for intestinal calcium transport analysis using the everted gut sac method.
(§2) Antagonism was tested by administering a combination of 1,25(OH)2D3 and the compound to the animal simultaneously.

For assay [2], the system named is Human promyelocytic leukemia (HL60) cells. The assay is described as follows: HL-60 differentiation (nitro blue tetrazolium reduction). In kind it is cell-based. The settings on record: FIG. 2; for EC50: HL60 cells, four days after treatment. The method, then: The study drugs were dissolved in ethanol and the concentrations determined using UV spectrophotometry. Serial dilutions were prepared so that a range of drug concentrations could be tested without changing the final concentration of ethanol (≦0.2%) present in the cell cultures.
Human promyelocytic leukemia (HL60) cells were grown in RPMI-1640 medium containing 10% fetal bovine serum. The cells were incubated at 37° C. in the presence of 5% CO2.
HL60 cells were plated at 1.2×10^5 cells/ml. Eighteen hours after plating, cells in duplicate were treated with drug. Four days later, the cells were harvested and a nitro blue tetrazolium reduction assay was performed (Collins et al., 1979; J. Exp. Med. 149:969-974). The percentage of differentiated cells was determined by counting a total of 200 cells and recording the number that contained intracellular black-blue formazan deposits. Verification of differentiation to monocytic cells was determined by measuring phagocytic activity (data not shown).

The test system of assay [3] is 24-hydroxylase (24Ohase) gene promoter in ROS 17/2.8 (bone) cells. The assay is described as follows: In vitro transcription assay (luciferase reporter). The class given is cell-based. The settings on record: FIG. 3; for EC50: ROS 17/2.8 cells, 24Ohase promoter-luciferase, sixteen hours after dosing, read-out: EC50, transcriptional activity in bone cells. Here is the method:
Transcription activity was measured in ROS 17/2.8 (bone) cells that were stably transfected with a 24-hydroxylase (24Ohase) gene promoter upstream of a luciferase reporter gene (Arbour et al., 1998). Cells were given a range of doses. Sixteen hours after dosing the cells were harvested and luciferase activities were measured using a luminometer. RLU=relative luciferase units.

Assay [4] in a line: Intestinal calcium transport, everted gut sac method, in vitamin D-deficient rats. The class given is in vivo, Sprague-Dawley rats. The settings on record: VIT-III 260, 2340 or 7020 pmol/day versus 1,25(OH)2D3 260 pmol/day, FIG. 5. Here is the method: as §1, §2
Assay [5] addresses T1, full-length recombinant rat vitamin D receptor (Rattus norvegicus, UniProt P13053).
T1 construct: Full-length recombinant rat receptor was expressed in E. coli BL21 (DE3) Codon Plus RIL cells; histidine tag (C); made in house; host or cells: E. coli BL21 (DE3) Codon Plus RIL
T1 sequence (P13053 1-423): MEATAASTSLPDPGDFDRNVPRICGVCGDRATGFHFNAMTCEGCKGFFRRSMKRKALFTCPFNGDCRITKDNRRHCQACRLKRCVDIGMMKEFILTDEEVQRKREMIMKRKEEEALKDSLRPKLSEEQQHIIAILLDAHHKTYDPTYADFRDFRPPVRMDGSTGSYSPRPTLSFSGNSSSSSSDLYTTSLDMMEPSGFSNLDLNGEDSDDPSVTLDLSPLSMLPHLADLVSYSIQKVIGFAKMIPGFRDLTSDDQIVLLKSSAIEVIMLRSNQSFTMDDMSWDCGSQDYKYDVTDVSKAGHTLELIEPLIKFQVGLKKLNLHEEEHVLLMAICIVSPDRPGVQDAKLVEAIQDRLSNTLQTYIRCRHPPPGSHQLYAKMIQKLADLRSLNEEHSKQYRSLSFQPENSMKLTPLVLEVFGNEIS
The assay is described as follows: Vitamin D receptor binding, competition with [3H]-1,25(OH)2D3. The settings on record: FIG. 1. The method, then:
Full-length recombinant rat receptor was expressed in E. coli BL21 (DE3) Codon Plus RIL cells and purified to homogeneity using two different column chromatography systems. The first system was a nickel affinity resin that utilizes the C-terminal histidine tag on this protein. The protein that was eluted from this resin was further purified using ion exchange chromatography (S-Sepharose Fast Flow). Aliquots of the purified protein were quick frozen in liquid nitrogen and stored at −80° C. until use. For use in binding assays, the protein was diluted in TEDK50 (50 mM Tris, 1.5 mM EDTA, pH7.4, 5 mM DTT, 150 mM KCl) with 0.1% Chaps detergent. The receptor protein and ligand concentration was optimized such that no more than 20% of the added radiolabeled ligand was bound to the receptor.
Radiolabeled and unlabeled ligands were added to 100 mcl of the diluted protein at a final ethanol concentration of ≦10%, mixed and incubated overnight on ice to reach binding equilibrium. The following day, 100 mcl of hydroxylapatite slurry (50%) was added to each tube and mixed at 10-minute intervals for 30 minutes. The hydroxylapaptite was collected by centrifugation and then washed three times with Tris-EDTA buffer (50 mM Tris, 1.5 mM EDTA, pH 7.4) containing 0.5% Titron X-100. […] Total binding was determined from the tubes containing only radiolabeled ligand.

Take `C=C1/C(=C\C=C2/CCC[C@]3(C)[C@@H]([C@H](C)CCCC(C)(C)O)CC[C@@H]23)C[C@@H](O)C[C@@H]1O` [1α,25-dihydroxyvitamin D3, reference compound]: in assay [1] (native hormone at the dosage tested, FIG. 4), the serum calcium levels result is recorded as “increased serum calcium levels”. The results for the EC50 in assay [2] and in assay [3] were 1300 pM and 290 pM, respectively.

Take `C=C1[C@H](O)CC(=C/C=C2\CCC[C@]3(C)/C(=C(/C)CCCC(C)(C)O)CC[C@@H]23)C[C@H]1O` [VIT-III, 17(Z)-1α,25-dihydroxy-17(20)-dehydro-2-methylene-19-norvitamin D3]: the “intestinal calcium transport activity as compared to 1,25(OH)2D3” value in assay [4] is given as “significant increase in intestinal calcium transport activity; also recorded: relatively high activity”. Further, the “binding to the receptor as compared to 1,25-(OH)2D3” value in assay [5] (full length recombinant rat VDR) is given as “bound equally well”. Further, the Ki in assay [5] (full-length recombinant rat VDR) stood at 50 pM. For the same compound, the “mobilization of bone calcium (serum calcium)” value is given as “significant mobilization of bone calcium” in assay [1] (260 pmol/day for 4 consecutive days); “progressively increasing serum calcium levels well above the effects seen with 1,25(OH)2D3” in assay [1] (2340 pmol/day and then 7020 pmol/day). The “HL-60 cell differentiation potency as compared to 1,25(OH)2D3” value in assay [2] is “as potent as 1,25(OH)2D3”. In addition, the EC50 in assay [2] (Homo sapiens, HL-60, 96 h) was 370 pM; in assay [3], 4.4 pM. The “transcriptional activity in bone cells as compared to 1α,25-dihydroxyvitamin D3” value in assay [3] is reported as “about the same transcriptional activity”.
